Laboratory results published in patent publication US20240287089A1, “Preparation and Uses of 7-Azaindenoisoquinolines” (Purdue Research Foundation, priority 0001, published 2024).

Key:
[1] = system: MCF7 (Breast); details: reference 20, read-out: Cytotoxicity GI50; cited from earlier work
[2] = system: SN12C (Renal); details: reference 20, read-out: Cytotoxicity GI50; cited from earlier work
[3] = system: NCI-60 cancer cell lines; details: NCI-60 panel; reference 20; read-out: MGM (average GI50 across NCI-60 panel); cited from earlier work
[4] = system: HOP-62 (Lung); details: Lung HOP-62; reference 20; read-out: Cytotoxicity GI50; cited from earlier work
[5] = system: SF-539 (CNS); details: CNS SF-539; reference 20; read-out: Cytotoxicity GI50; cited from earlier work
[6] = system: OVCAR-3 (Ovarian); details: Ovarian OVCAR-3; reference 20; read-out: Cytotoxicity GI50; cited from earlier work
[7] = Brain penetration and plasma/brain pharmacokinetics in combination with Temodar or Lynparza
Procedure: A similar analysis was performed with LMP744 and LMP400 in combination with Temodar and Lynparza.

[8] = system: UACC-62 (Melanoma); details: Melanoma UACC-62; reference 20; read-out: Cytotoxicity GI50; cited from earlier work
[9] = 10 mg/kg IV + Lynparza 100 mg/kg PO, 0.25 h
[10] = 10 mg/kg IV + Lynparza 100 mg/kg PO, 0.5 h
[11] = 10 mg/kg IV + Lynparza 100 mg/kg PO, 1 h
[12] = 10 mg/kg IV + Lynparza 100 mg/kg PO, 2 h
[13] = 10 mg/kg IV + Lynparza 100 mg/kg PO, 4 h
[14] = 10 mg/kg IV + Lynparza 100 mg/kg PO, 8 h
[15] = 10 mg/kg IV + Lynparza 100 mg/kg PO, 24 h
[16] = LMP744 20 mg/kg IV + Temador 125 mg/kg PO, 0.25 h
[17] = LMP744 20 mg/kg IV + Temador 125 mg/kg PO, 0.5 h
[18] = LMP744 20 mg/kg IV + Temador 125 mg/kg PO, 1 h
[19] = LMP744 20 mg/kg IV + Temador 125 mg/kg PO, 2 h
[20] = LMP744 20 mg/kg IV + Temador 125 mg/kg PO, 4 h
[21] = LMP744 20 mg/kg IV + Temador 125 mg/kg PO, 8 h
[22] = LMP744 20 mg/kg IV + Temador 125 mg/kg PO, 24 h
[23] = brain, 10 mg/kg IV + Lynparza 100 mg/kg PO
[24] = brain, LMP744 20 mg/kg IV + Temador 125 mg/kg
[25] = plasma, 10 mg/kg IV + Lynparza 100 mg/kg PO
[26] = plasma, LMP744 20 mg/kg IV + Temador 125 mg/kg

COc1cc2c3c(n(CCCNCCO)c(=O)c2cc1OC)-c1cc2c(cc1C3=O)OCO2 [LMP744]
GI50 [1]: 790 nM | GI50 [2]: < 10 nM | GI50 [3]: 110 nM | GI50 [4]: 20 nM | GI50 [5]: 40 nM | GI50 [6]: 350 nM | Brain Conc [7, 9]: 89 ± 19 nM | Brain/Plasma Conc Ratio [7, 9]: 0.46 | Plasma Conc [7, 9]: 1356 ± 229 nM | Brain Conc [7, 10]: 780 ± 24 nM | Brain/Plasma Conc Ratio [7, 10]: 0.83 | Plasma Conc [7, 10]: 940 ± 155 nM | Brain Conc [7, 11]: 825 ± 250 nM | Brain/Plasma Conc Ratio [7, 11]: 2.05 | Plasma Conc [7, 11]: 402 ± 29 nM | Brain Conc [7, 12]: 850 ± 58 nM | Brain/Plasma Conc Ratio [7, 12]: 2.64 | Plasma Conc [7, 12]: 322 ± 88 nM | Brain Conc [7, 13]: 548 ± 28 nM | Brain/Plasma Conc Ratio [7, 13]: 2.91 | Plasma Conc [7, 13]: 188 ± 54 nM | Brain Conc [7, 14]: 557 ± 66 nM | Brain/Plasma Conc Ratio [7, 14]: 7.74 | Plasma Conc [7, 14]: 72 ± 26 nM | Brain Conc [7, 15]: 457 ± 61 nM | Brain/Plasma Conc Ratio [7, 15]: 20.30 | Plasma Conc [7, 15]: 13 ± 2 nM | Brain Conc [7, 16]: 1093 ± 168 nM | Brain/Plasma Conc Ratio [7, 16]: 0.49 | Plasma Conc [7, 16]: 2238 ± 465 nM | Brain Conc [7, 17]: 1199 ± 243 nM | Brain/Plasma Conc Ratio [7, 17]: 0.89 | Plasma Conc [7, 17]: 1854 ± 101 nM | Brain Conc [7, 18]: 1390 ± 145 nM | Brain/Plasma Conc Ratio [7, 18]: 1.35 | Plasma Conc [7, 18]: 1027 ± 202 nM | Brain Conc [7, 19]: 1328 ± 188 nM | Brain/Plasma Conc Ratio [7, 19]: 2.49 | Plasma Conc [7, 19]: 534 ± 143 nM | Brain Conc [7, 20]: 1272 ± 188 nM | Brain/Plasma Conc Ratio [7, 20]: 3.58 | Plasma Conc [7, 20]: 355 ± 37 nM | Brain Conc [7, 21]: 1244 ± 78 nM | Plasma Conc [7, 21]: 139 ± 17 nM | Brain Conc [7, 22]: 955 ± 76 nM | Brain/Plasma Conc Ratio [7, 22]: 46 | Plasma Conc [7, 22]: 21 ± 4 nM | AUClast [7, 23]: 5860 ng·h/g | Cmax [7, 23]: 373 ng/g | Tmax [7, 23]: 2.00 h | AUClast [7, 24]: 12185 ng·h/g | Cmax [7, 24]: 611 ng/g | Tmax [7, 24]: 1.00 h | AUCInf [7, 25]: 1535 ng·h/mL | AUClast [7, 25]: 1491 ng·h/mL | AUClast/D [7, 25]: 149 h·ng/mL per mg/kg | AUC—% Extrap—obs [7, 25]: 2.83% | C0 [7, 25]: 2072 ng/mL | Cl_obs [7, 25]: 109 mL/min/kg | MRTInf—obs [7, 25]: 4.33 h | T1/2 [7, 25]: 5.43 h | Vss—obs [7, 25]: 28.2 L/kg | AUCInf [7, 26]: 2881 ng·h/mL | AUClast [7, 26]: 2813 ng·h/mL | AUClast/D [7, 26]: 141 h·ng/mL per mg/kg | AUC—% Extrap—obs [7, 26]: 2.37% | C0 [7, 26]: 4973 ng/mL | Cl_obs [7, 26]: 116 mL/min/kg | MRTInf—obs [7, 26]: 4.09 h | T1/2 [7, 26]: 5.20 h | Vss—obs [7, 26]: 28.4 L/kg | GI50 [8]: 30 nM
